# Laboratory results as given in patent US20090264481A1, “Compounds, Compositions and Methods Comprising Oxadiazole Derivatives” (Institute for OneWorld Health, priority 2008, published 2009).
# pIC50: −log10 of the molar value.
# Target: T1, CFTR channel (Homo sapiens, UniProt P13569)
# T1 construct: results in the phosphorylation and opening of CFTR anion channels; host or cells: human colonic T84 cells
# Experiment: T84 assay (FLIPR membrane potential, forskolin/IBMX-stimulated CFTR channel activity)
# Format: cell-based
# Settings: Human colonic T84 cells; 10 μM forskolin + 100 μM IBMX; average of at least 2 runs unless marked n = 1
# Procedure: (§1) For example, Human colonic T84 cells can be acquired from the European Collection of Cell Cultures (ECACC) and grown in standard culture conditions as described by the supplier. On the day before assay 25,000 T84 cells per well are plated into standard black walled, clear bottom 384-well assay plates in standard growth medium consisting of DMEM:F12 with 10% FBS and incubated overnight. On the day of the assay the plates are washed using a standard assay buffer (HBSS with 10 mM Hepes) and incubated for 15 minutes in serum free cell culture medium before the addition of a commercially available membrane potential sensitive fluorescent dye (FLIPR Red membrane potential dye, Molecular Devices Corporation). T84 cells are incubated with the FLIPR Red membrane potential dye for 45 minutes in the presence and absence of test compound before being transferred to a commercially available fluorescence imaging plate reader (FLIPR384, Molecular Devices Corporation). Fluorescence levels are monitored continuously every second for 150 seconds; after an initial 10 second baseline, CFTR channel activity is stimulated through the addition of 10 μM forskolin in the presence of 100 μM of the phosphodiesterase inhibitor iso-butyl-methylxanthine (IBMX). Addition of the forskolin leads to the activation of intracellular adenylyl cylase 1, elevating cAMP levels and results in the phosphorylation and opening of CFTR anion channels. CFTR channel opening causes chloride ion efflux and subsequent depolarization of the cells, which is measured by an increase in fluorescence. CFTR inhibitor compounds prevent cell depolarization and the associated increase in fluorescence.
# as §1, with “Human colonic” for “For example, Human colonic”, “T84 cells are acquired from” for “T84 cells can be acquired from”, “(ECACC) and are grown in” for “(ECACC) and grown in”
# T1 sequence (P13569 whole entry): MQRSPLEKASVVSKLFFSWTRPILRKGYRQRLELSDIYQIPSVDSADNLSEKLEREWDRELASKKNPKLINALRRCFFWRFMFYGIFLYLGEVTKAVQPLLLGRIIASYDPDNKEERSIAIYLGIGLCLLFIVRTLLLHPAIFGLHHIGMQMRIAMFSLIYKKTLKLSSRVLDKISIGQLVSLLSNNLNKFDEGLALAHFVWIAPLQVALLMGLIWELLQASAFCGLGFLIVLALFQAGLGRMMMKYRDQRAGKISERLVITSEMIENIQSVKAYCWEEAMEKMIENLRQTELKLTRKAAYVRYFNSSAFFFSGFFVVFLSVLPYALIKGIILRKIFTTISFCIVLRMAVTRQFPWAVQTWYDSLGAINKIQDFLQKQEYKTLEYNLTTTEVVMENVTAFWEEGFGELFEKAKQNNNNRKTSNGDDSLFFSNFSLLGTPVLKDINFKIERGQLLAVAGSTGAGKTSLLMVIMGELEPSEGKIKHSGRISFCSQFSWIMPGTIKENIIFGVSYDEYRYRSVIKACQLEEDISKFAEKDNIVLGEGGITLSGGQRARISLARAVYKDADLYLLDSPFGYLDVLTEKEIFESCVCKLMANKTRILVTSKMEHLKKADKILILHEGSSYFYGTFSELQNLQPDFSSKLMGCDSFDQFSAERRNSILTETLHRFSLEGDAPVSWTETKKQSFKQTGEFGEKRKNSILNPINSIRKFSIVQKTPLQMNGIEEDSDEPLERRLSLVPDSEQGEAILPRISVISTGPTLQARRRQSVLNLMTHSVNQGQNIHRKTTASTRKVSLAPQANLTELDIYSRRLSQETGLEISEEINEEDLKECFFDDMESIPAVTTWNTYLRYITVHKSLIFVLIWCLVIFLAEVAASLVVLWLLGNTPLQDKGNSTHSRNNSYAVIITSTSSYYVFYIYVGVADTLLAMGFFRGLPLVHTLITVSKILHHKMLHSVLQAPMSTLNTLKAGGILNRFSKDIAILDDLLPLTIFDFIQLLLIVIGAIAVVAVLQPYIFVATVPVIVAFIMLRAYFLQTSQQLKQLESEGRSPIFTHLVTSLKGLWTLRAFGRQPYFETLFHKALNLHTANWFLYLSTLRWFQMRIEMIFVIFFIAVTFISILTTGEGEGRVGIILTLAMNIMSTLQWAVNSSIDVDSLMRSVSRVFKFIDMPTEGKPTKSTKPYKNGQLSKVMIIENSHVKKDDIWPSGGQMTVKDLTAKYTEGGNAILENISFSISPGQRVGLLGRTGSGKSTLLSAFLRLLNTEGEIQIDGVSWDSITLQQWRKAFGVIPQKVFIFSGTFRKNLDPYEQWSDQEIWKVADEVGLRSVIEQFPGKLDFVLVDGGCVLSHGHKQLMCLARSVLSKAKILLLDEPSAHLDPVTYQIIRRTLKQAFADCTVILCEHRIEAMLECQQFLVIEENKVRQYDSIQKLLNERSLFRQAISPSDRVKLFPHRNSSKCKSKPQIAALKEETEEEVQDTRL
row,pIC50,SMILES
1,5.41,"Oc1c(Br)cc(-c2noc(C(O)(Cc3ccccc3)Cc3ccccc3)n2)cc1Br [Compound 1, 2,6-dibromo-4-(5-(2-hydroxy-1,3-diphenylpropan-2-yl)-1,2,4-oxadiazol-3-yl)phenol]"
2,4.79,"CC#CC(O)(C#CC)c1nc(-c2cc(Br)c(O)c(Br)c2)no1 [Compound 12, 2,6-dibromo-4-(5-(4-hydroxyhepta-2,5-diyn-4-yl)-1,2,4-oxadiazol-3-yl)phenol]"
3,5.02,"COc1cccc(C(O)(c2cccc(OC)c2)c2nc(-c3cc(Cl)c(O)c(Cl)c3)no2)c1 [Compound 9, 2,6-dichloro-4-(5-(hydroxybis(3-methoxyphenyl)methyl)-1,2,4-oxadiazol-3-yl)phenol]"
4,5.23,"Oc1c(Br)cc(-c2noc(C(O)(c3ccccc3)c3ccccc3)n2)cc1Br [Compound 5, 2,6-dibromo-4-(5-(hydroxydiphenylmethyl)-1,2,4-oxadiazol-3-yl)phenol]"
5,5.25,"Oc1c(Br)cc(-c2noc(C(O)(c3ccc(Cl)cc3)c3ccc(Cl)cc3)n2)cc1Br [Compound 4, 4-(5-(bis(4-chlorophenyl)(hydroxy)methyl)-1,2,4-oxadiazol-3-yl)-2,6-dibromophenol]"
6,4.94,"Oc1c(Br)cc(-c2noc(C(O)(c3cccc(Cl)c3)c3cccc(Cl)c3)n2)cc1Br [Compound 8, 4-(5-(bis(3-chlorophenyl)(hydroxy)methyl)-1,2,4-oxadiazol-3-yl)-2,6-dibromophenol]"
7,5.26,"COc1cccc(C(O)(c2cccc(OC)c2)c2nc(-c3cc(Br)c(O)c(Br)c3)no2)c1 [Compound 3, 2,6-dibromo-4-(5-(hydroxybis(3-methoxyphenyl)methyl)-1,2,4-oxadiazol-3-yl)phenol]"
8,5.30,"Oc1c(Br)cc(-c2noc(C(O)(c3cccc(F)c3)c3cccc(F)c3)n2)cc1Br [Compound 2, 4-(5-(bis(3-fluorophenyl)(hydroxy)methyl)-1,2,4-oxadiazol-3-yl)-2,6-dibromophenol]"
9,5.16,"Oc1c(Cl)cc(-c2noc(C(O)(c3ccccc3)c3ccccc3)n2)cc1Cl [Compound 10, 2,6-dichloro-4-(5-(hydroxydiphenylmethyl)-1,2,4-oxadiazol-3-yl)phenol]"
10,4.96,"Oc1c(Cl)cc(-c2noc(C(O)(c3ccc(Cl)cc3)c3ccc(Cl)cc3)n2)cc1Cl [Compound 11, 4-(5-(bis(4-chlorophenyl)(hydroxy)methyl)-1,2,4-oxadiazol-3-yl)-2,6-dichlorophenol]"
11,4.73,"Oc1c(Br)cc(-c2noc(C(O)(c3ccc4ccccc4c3)c3ccc4ccccc4c3)n2)cc1Br [Compound 7, 2,6-dibromo-4-(5-(hydroxydinaphthalen-2-ylmethyl)-1,2,4-oxadiazol-3-yl)phenol]"
12,4.73,"CC(C)(C)c1ccc(C(O)(c2ccc(C(C)(C)C)cc2)c2nc(-c3cc(Br)c(O)c(Br)c3)no2)cc1 [Compound 6, 4-(5-(bis(4-tert-butylphenyl)(hydroxy)methyl)-1,2,4-oxadiazol-3-yl)-2,6-dibromophenol]"
